Results: paper PMC9305623, “Next generation GLP-1/GIP/glucagon triple agonists normalize body weight in obese mice” (Molecular Metabolism, 2022)
*1 amine or outer side, *2 acyl side, *3 side chain or, on linkers, in order; H or OH if unused. Where a SMILES comes first, the peptide text is derived from it. Side-chain parts run from the residue outwards. [ ]: non-standard residue; d: D form. The star is where a group is joined. C20 diacid = O=C(O)CCCCCCCCCCCCCCCCCCC(=O)*; γGlu = O=C(O)[C@H](CCC(=O)[*:2])N[*:1]; εLys = N[C@@H](CCCCN[*:1])C(=O)[*:2]; Aib = CC(C)(N)C(=O)O

Legend:
Assay in all cases: Receptor activation: cAMP production by CRE-luciferase reporter in stably transfected BHK cells
Format in all cases: cell-based
hGIP Receptor = molecular target: T1, hGIP Receptor (Homo sapiens, UniProt P48546); details: compared to the native ligand for the receptor
T1 construct: expressed in transfected cells; host or cells: baby hamster kidney (BHK) cells, stably transfected, with CRE-firefly luciferase reporter
T1 sequence (P48546 22-466): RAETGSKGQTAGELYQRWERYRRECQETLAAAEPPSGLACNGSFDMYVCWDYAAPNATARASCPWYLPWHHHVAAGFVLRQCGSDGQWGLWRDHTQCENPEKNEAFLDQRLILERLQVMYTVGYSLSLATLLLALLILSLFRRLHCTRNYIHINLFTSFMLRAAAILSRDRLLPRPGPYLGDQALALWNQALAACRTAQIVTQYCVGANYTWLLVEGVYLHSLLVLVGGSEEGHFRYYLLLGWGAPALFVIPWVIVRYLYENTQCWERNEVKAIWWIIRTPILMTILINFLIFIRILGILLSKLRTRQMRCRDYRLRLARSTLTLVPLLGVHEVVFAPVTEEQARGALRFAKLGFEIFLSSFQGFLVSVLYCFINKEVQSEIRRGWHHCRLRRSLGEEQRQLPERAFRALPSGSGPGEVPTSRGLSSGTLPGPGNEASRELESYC
Summary of the method: (§1)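 BHK cells stably expressing one human receptor plus a CRE-firefly luciferase reporter were stimulated 3 h at 37 °C in phenol-red-free DMEM with 1% ovalbumin and 0.1% Pluronic F-68.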

hGLP-1 Receptor = molecular target: T2, hGLP-1 Receptor (Homo sapiens, UniProt P43220); details: compared to the native ligand for the receptor
T2 construct: expressed in transfected cells; host or cells: baby hamster kidney (BHK) cells, stably transfected, with CRE-firefly luciferase reporter
Summary of the method: as §1

hGcg Receptor = molecular target: T3, hGcg Receptor (Homo sapiens, UniProt P47871); details: compared to the native ligand for the receptor
T3 construct: expressed in transfected cells; host or cells: baby hamster kidney (BHK) cells, stably transfected, with CRE-firefly luciferase reporter
Summary of the method: as §1

mGIP Receptor = molecular target: T4, mGIP Receptor (Mus musculus, UniProt Q0P543); details: relative to native ligand at mouse-derived receptor
T4 construct: expressed in transfected cells; host or cells: baby hamster kidney (BHK) cells, stably transfected, with CRE-firefly luciferase reporter
T4 sequence (Q0P543 19-460): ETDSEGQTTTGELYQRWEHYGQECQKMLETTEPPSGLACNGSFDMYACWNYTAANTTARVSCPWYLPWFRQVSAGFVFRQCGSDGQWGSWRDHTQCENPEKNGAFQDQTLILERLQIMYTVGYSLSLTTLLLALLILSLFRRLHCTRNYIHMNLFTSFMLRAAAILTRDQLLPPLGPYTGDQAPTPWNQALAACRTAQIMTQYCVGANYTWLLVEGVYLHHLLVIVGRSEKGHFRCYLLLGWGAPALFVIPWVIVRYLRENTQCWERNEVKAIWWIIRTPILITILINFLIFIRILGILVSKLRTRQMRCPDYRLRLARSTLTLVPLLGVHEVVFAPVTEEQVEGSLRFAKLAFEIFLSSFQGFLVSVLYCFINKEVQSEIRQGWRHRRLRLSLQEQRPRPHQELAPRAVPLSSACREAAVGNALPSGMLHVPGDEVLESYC
Method: Cyclic AMP (cAMP) production was assessed as a proxy for receptor activation using stably transfected baby hamster kidney (BHK) cell lines expressing the DNA for one individual receptor (GLP-1R, GIPR, GcgR; human- or mouse-specific sequence) and the DNA for the firefly luciferase reporter gene linked to the cAMP response element (CRE). The cells were kept in continuous culture at 37 °C and 5% CO2 in Dulbecco's Modified Eagle Medium (DMEM) supplemented with 10% heat-inactivated fetal bovine serum (HI-FBS), 300 μg/mL hygromycin, and 500 μg/mL G418; for cell lines expressing GIPR, the G418 concentration was lowered to 400 μg/mL. Cells were plated in a 96-well poly-D-lysine-coated plate at 5,000 cells per well in growth media and incubated overnight at 37 °C with 5% CO2. After the overnight incubation, the media was removed, the plate was washed once in Dulbecco's phosphase-buffered saline (DPBS), and 50 μL of assay buffer (DMEM without phenol red, 10 mM HEPES, 1x Glutamax, 1% ovalbumin, 0.1% Pluronic F-68) was added to each well. […] The assay plate was covered to protect reagent from light, shaken at 250 rpm at room temperature for 30 min, and read in a microtiter plate reader. EC50 values were calculated using Prism software (GraphPad) with the nonlinear regression log(agonist) vs. response. A minimum of two replicates were measured for each sample.

T2 sequence (P43220 24-463): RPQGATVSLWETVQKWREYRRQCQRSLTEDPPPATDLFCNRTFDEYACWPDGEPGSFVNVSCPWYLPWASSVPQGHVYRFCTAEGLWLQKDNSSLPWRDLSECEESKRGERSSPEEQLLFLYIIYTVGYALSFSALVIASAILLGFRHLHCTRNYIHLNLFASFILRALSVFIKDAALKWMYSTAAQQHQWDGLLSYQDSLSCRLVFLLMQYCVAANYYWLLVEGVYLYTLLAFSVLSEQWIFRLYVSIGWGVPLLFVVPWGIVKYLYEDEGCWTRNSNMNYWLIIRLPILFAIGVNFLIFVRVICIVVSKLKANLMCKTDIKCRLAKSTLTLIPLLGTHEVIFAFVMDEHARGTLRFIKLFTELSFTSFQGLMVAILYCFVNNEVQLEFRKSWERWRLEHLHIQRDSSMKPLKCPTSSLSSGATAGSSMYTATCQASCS
T3 sequence (P47871 26-477): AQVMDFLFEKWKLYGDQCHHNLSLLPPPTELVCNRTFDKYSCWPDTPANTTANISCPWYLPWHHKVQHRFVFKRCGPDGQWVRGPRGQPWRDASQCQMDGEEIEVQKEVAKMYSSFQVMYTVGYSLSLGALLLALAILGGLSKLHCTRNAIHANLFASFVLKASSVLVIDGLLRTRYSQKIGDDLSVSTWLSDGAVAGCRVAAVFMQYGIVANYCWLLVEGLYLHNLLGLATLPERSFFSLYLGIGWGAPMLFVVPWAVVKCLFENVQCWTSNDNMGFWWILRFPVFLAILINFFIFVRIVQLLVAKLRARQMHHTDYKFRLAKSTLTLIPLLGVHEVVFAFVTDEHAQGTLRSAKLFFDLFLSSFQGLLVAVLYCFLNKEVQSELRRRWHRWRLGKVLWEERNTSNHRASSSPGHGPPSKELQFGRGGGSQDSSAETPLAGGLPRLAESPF

`CC[C@H](C)[C@H](NC(=O)[C@H](CO)NC(=O)[C@H](Cc1ccc(O)cc1)NC(=O)[C@H](CC(=O)O)NC(=O)[C@H](CO)NC(=O)[C@@H](NC(=O)[C@H](Cc1ccccc1)NC(=O)[C@@H](NC(=O)CNC(=O)[C@H](Cc1c[nH]cn1)NC(=O)C(C)(C)NC(=O)[C@@H](N)Cc1c[nH]cn1)[C@@H](C)O)[C@@H](C)O)C(=O)N[C@@H](Cc1ccc(O)cc1)C(=O)N[C@@H](CC(C)C)C(=O)N[C@@H](CCC(=O)O)C(=O)N[C@@H](CCCCNC(=O)[C@@H](N)CCCCNC(=O)[C@@H](N)CCCCNC(=O)CC[C@H](NC(=O)CCCCCCCCCCCCCCCCCCC(=O)O)C(=O)O)C(=O)N[C@@H](CCCCN)C(=O)N[C@@H](Cc1ccc(O)cc1)C(=O)N[C@@H](C)C(=O)NC(C)(C)C(=O)N[C@@H](CCC(=O)O)C(=O)N[C@@H](Cc1ccccc1)C(=O)N[C@H](C(=O)N[C@@H](CCC(N)=O)C(=O)N[C@@H](Cc1c[nH]c2ccccc12)C(=O)N[C@@H](CC(C)C)C(=O)N[C@@H](CC(C)C)C(=O)N[C@@H](CCC(=O)O)C(=O)NCC(=O)NCC(=O)N1CCC[C@H]1C(=O)N[C@@H](CO)C(=O)N[C@@H](CO)C(=O)NCC(=O)N[C@@H](C)C(=O)N1CCC[C@H]1C(=O)N1CCC[C@H]1C(=O)N1CCC[C@H]1C(=O)N[C@@H](CO)C(N)=O)C(C)C` [Compound 16] (H-H[Aib]HGTFTSDYSIYLEK([εLys-εLys-γGlu-C20 diacid])KYA[Aib]EFVQWLLEGGPSSGAPPPS-NH2) was tested. Which “hGIP Receptor Relative Potency %” value (hGIP Receptor) did it give?
Its value is 67%.

And the “hGLP-1 Receptor Relative Potency %” value (hGLP-1 Receptor)?
Its value is 177%.

And the “hGcg Receptor Relative Potency %” value (hGcg Receptor)?
Its value is 102%.

What about the “mGIP Receptor Relative Potency %” value (mGIP Receptor) of the same compound?
The value was 265%.
